US6737383B1, “Herbicidal oxadiazolidines” (priority 1999, dated 2004)

Assays:
green foxtail [1] = assay: Test E green foxtail; type: in vivo, Setaria viridis; conditions: Preemergence
common groundsel = assay: Test D common groundsel; type: in vivo, Senecio vulgaris; conditions: Preemergence, 0 to 100 scale
How it was run: (§1)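 Weed seeds planted in sandy loam; species kept apart in individual pots or compartments. Preemergence tests: treatment to soil surface within one day. Greenhouse growth, then visual injury scoring at 14–21 days (0–100).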

blackgrass = assay: Test E blackgrass; type: in vivo, Alopecurus myosuroides; conditions: Preemergence
Green foxtail [2] = assay: Test D green foxtail; type: in vivo
How it was run: as §1

winter wheat [3] = assay: Test E winter wheat; type: in vivo, Triticum aestivum; conditions: Preemergence
Alexandergrass = assay: Test D Alexandergrass; type: in vivo, Brachiaria plantaginea; conditions: Preemergence, 0 to 100 scale
How it was run: as §1

winter barley = assay: Test E winter barley; type: in vivo, Hordeum vulgare; conditions: Preemergence
wild oat [4] = assay: Test E wild oat; type: in vivo, Avena fatua; conditions: Preemergence
Italian ryegrass = assay: Test E Italian ryegrass; type: in vivo, Lolium multiflorum; conditions: Preemergence
rice = assay: Test B flood test rice; type: in vivo, Oryza sativa
How it was run: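 Flood test on plants grown to the 2-leaf stage; treated plants kept in greenhouse twelve to sixteen days, then visually rated against controls on a 0 (no effect) to 10 (complete control) scale.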

winter wheat [5] = assay: Test E winter wheat; type: in vivo, Triticum aestivum; conditions: Postemergence, 0 to 100 scale
How it was run: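 Compounds formulated in non-phytotoxic solvent mixture with surfactant; for postemergence, sprayed on plants at 1- to 4-leaf stage grown in 60:40 sandy loam/greenhouse potting mix. Kept in greenhouse ~21 to 28 days, then visually rated against untreated controls.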

wild oat [6] = assay: Test B pre/postemergence wild oat; type: in vivo, Avena fatua
How it was run: (§2)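 Test chemicals in a non-phytotoxic solvent mixture with surfactant were sprayed preemergence onto planted seeds and postemergence onto plants 2 to 18 cm tall (1- to 4-leaf stage). After twelve to sixteen days in a greenhouse, injury was visually rated against untreated controls from 0 (no effect) to 10 (complete control).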

wheat = assay: Test B pre/postemergence wheat; type: in vivo, Triticum aestivum
How it was run: as §2

crabgrass = assay: Test B pre/postemergence crabgrass; type: in vivo, Digitaria sanguinalis
How it was run: as §2

goosegrass = assay: Test D goosegrass; type: in vivo, Eleusine indica; conditions: Preemergence, 0 to 100 scale
How it was run: as §1

[7] = Rate 31 g/ha, 0 to 100 scale, 0 no effect, 100 complete control
[8] = Rate 62 g/ha, 0 to 100 scale, 0 no effect, 100 complete control
[9] = Rate 125 g/ha, 0 to 100 scale (0 no effect, 100 complete control)
[10] = Rate 16 g/ha, 0 no injury, 100 complete control
[11] = Rate 32 g/ha, 0 no injury, 100 complete control
[12] = Rate 64 g/ha, 0 no injury, 100 complete control
[13] = Rate 125 g/ha, 0 no injury, 100 complete control
[14] = Rate 64 g/ha, Preemergence; 0 to 100 scale, 0 no injury, 100 complete control
[15] = Rate 125 g/ha, Preemergence; 0 to 100 scale, 0 no injury, 100 complete control
[16] = Preemergence, Rate 62 g/ha, scale 0 to 10 (0 no effect, 10 complete control)
[17] = Preemergence, Rate 125 g/ha, 0 is no effect, 10 is complete control
[18] = Preemergence, Rate 250 g/ha, scale 0 to 10, 0 is no effect, 10 is complete control
[19] = Preemergence, Rate 500 g/ha, scale 0 to 10 (0 no effect, 10 complete control)
[20] = Rate 250 g/ha, Postemergence, scale 0 to 10, 0 is no effect, 10 is complete control
[21] = Rate 500 g/ha, Postemergence, scale 0 to 10
[22] = Rate 62 g/ha, Postemergence, scale of 0 to 10 where 0 is no effect and 10 is complete control

## C=CCn1c(=O)on(C(=O)N(c2ccc(F)cc2F)C(C)C)c1=O [Compound 151]
Green foxtail [1]; [7]
  Plant response rating, Green foxtail: 20
Green foxtail [1]; [8]
  Plant response rating, Green foxtail: 30
Green foxtail [1]; [9]
  Plant response rating, Green foxtail: 80
Common groundsel; [10]
  Plant response rating, Com. groundsel: 0
Common groundsel; [11]
  Plant response rating, Com. groundsel: 0
Common groundsel; [12]
  Plant response rating, Com. groundsel: 0
Common groundsel; [13]
  Plant response rating, Com. groundsel: 100
Common groundsel; Rate 250 g/ha
  Plant response rating, Com. groundsel: 100
Common groundsel; Rate 500 g/ha
  Plant response rating, Com. groundsel: 100
blackgrass; [7]
  Plant response rating, Blackgrass: 30
blackgrass; [8]
  Plant response rating, Blackgrass: 45
blackgrass; [9]
  Plant response rating, Blackgrass: 75
Green foxtail [2]; Preemergence; Rate 16 g/ha; 0 to 100 scale, 0 no injury, 100 complete control
  Plant response rating, Green foxtail: 100
Green foxtail [2]; Preemergence; Rate 32 g/ha; 0 to 100 scale, 0 no injury, 100 complete control
  Plant response rating, Green foxtail: 100
Green foxtail [2]; Rate 16 g/ha; Preemergence; 0 to 100 scale, 0 no injury, 100 complete control
  Plant response rating, Green foxtail: 100
Green foxtail [2]; Rate 32 g/ha; Preemergence; 0 to 100 scale, 0 no injury, 100 complete control
  Plant response rating, Green foxtail: 75
Green foxtail [2]; [14]
  Green foxtail plant response rating: 100
  Plant response rating, Green foxtail: 100
Green foxtail [2]; [15]
  Green foxtail plant response rating: 100
  Plant response rating, Green foxtail: 100
Green foxtail [2]; Rate 250 g/ha; Preemergence; 0 to 100 scale
  Plant response rating, Green foxtail: 100
Green foxtail [2]; Rate 500 g/ha, Preemergence; 0 to 100 scale
  Plant response rating, Green foxtail: 100
Winter wheat [3]; [7]
  Plant response rating, Wheat (winter): 0
Winter wheat [3]; [8]
  Plant response rating, Wheat (winter): 0
Winter wheat [3]; [9]
  Plant response rating, Wheat (winter): 10
Alexandergrass; [10]
  Plant response rating, Alexandergrass: 40
Alexandergrass; [11]
  Plant response rating, Alexandergrass: 40
Alexandergrass; [12]
  Plant response rating, Alexandergrass: 98
Alexandergrass; [13]
  Plant response rating, Alexandergrass: 98
Alexandergrass; Rate 250 g/ha
  Plant response rating, Alexandergrass: 100
Alexandergrass; Rate 500 g/ha
  Plant response rating, Alexandergrass: 100
Winter barley; [7]
  Plant response rating, Barley (winter): 10
Winter barley; [8]
  Plant response rating, Barley (winter): 10
Winter barley; [9]
  Plant response rating, Barley (winter): 20
Wild oat [4]; [7]
  Plant response rating, Wild oat: 10
Wild oat [4]; [8]
  Plant response rating, Wild oat: 10
Wild oat [4]; [9]
  Plant response rating, Wild oat: 20
Italian ryegrass; [7]
  Plant response rating, I. Ryegrass: 20
Italian ryegrass; [8]
  Plant response rating, I. Ryegrass: 30
Italian ryegrass; [9]
  Plant response rating, I. Ryegrass: 50
rice; Postemergence (flood test species), Rate 125 g/ha, scale of 0 to 10 where 0 is no effect and 10 is complete control
  Rice plant response rating: 0
rice; Rate 62 g/ha, Postemergence section, flood test species, scale of 0 to 10 where 0 is no effect and 10 is complete control
  Rice plant response rating: 0
rice; Rate 250 g/ha, Postemergence (flood test), scale 0 to 10, 0 is no effect, 10 is complete control
  Plant response rating, Rice: 0
rice; Rate 500 g/ha, listed under Postemergence (flood test species), scale 0 to 10
  Rice plant response rating: 0
Winter wheat [5]; Rate 31 g/ha, 0 no effect, 100 complete control
  Plant response rating, Wheat (winter): 10
Winter wheat [5]; Rate 62 g/ha
  Plant response rating, Wheat (winter): 10
Winter wheat [5]; Rate 125 g/ha
  Plant response rating, Wheat (winter): 70
Wild oat [6]; [16]
  Wild oats plant response rating: 8
Wild oat [6]; [17]
  Wild oats plant response rating (0 to 10 scale): 9
Wild oat [6]; [18]
  Wild oats plant response rating: 10
Wild oat [6]; [19]
  Wild oats plant response rating: 10
Wild oat [6]; [20]
  Plant response rating, Wild oats: 6
Wild oat [6]; [21]
  Wild oats plant response rating: 8
wheat; [16]
  Wheat plant response rating: 2
wheat; [17]
  Wheat plant response rating (0 to 10 scale): 2
wheat; [18]
  Wheat plant response rating: 4
wheat; [19]
  Wheat plant response rating: 5
wheat; [22]
  Wheat plant response rating: 0
wheat; [20]
  Plant response rating, Wheat: 4
wheat; [21]
  Wheat plant response rating: 8
crabgrass; Postemergence, Rate 125 g/ha, scale of 0 to 10 where 0 is no effect and 10 is complete control
  Crabgrass plant response rating: 9
crabgrass; [16]
  Crabgrass plant response rating: 10
crabgrass; [17]
  Crabgrass plant response rating (0 to 10 scale): 10
crabgrass; [18]
  Crabgrass plant response rating: 10
crabgrass; [19]
  Crabgrass plant response rating: 10
crabgrass; [22]
  Crabgrass plant response rating: 8
crabgrass; [20]
  Plant response rating, Crabgrass: 9
crabgrass; [21]
  Crabgrass plant response rating: 9
goosegrass; [10]
  Plant response rating, Goosegrass: 85
goosegrass; [11]
  Plant response rating, Goosegrass: 85
goosegrass; [12]
  Plant response rating, Goosegrass: 100
goosegrass; [13]
  Plant response rating, Goosegrass: 100
goosegrass; Rate 250 g/ha
  Plant response rating, Goosegrass: 100
goosegrass; Rate 500 g/ha
  Plant response rating, Goosegrass: 100
